# Assays:
# Format in all cases: cell-based, rat
# [1] = system: ELT3 cells; assay: ELT3 cell proliferation assay (Hoechst 33258 DNA quantitation); details: for reduction in cell proliferation compared to the untreated control / cell proliferation increase from the control: estrogen-free
# Procedure: The Eker rat tumor-derived ELT-3 uterine leiomyoma cells were grown in DMEM medium supplemented with 10% fetal bovine serum and 1% antibiotics (containing 100 U/ml penicillin and 100 μg/ml streptomycin. The cells were maintained in the 100 mm tissue culture dishes at 37° C. air with 5% CO2 and 95% humidity. When experiments required the addition of exogenous compounds, cells were weaned by culturing for 48 h in phenol red-free medium containing 10% Charcoal-stripped fetal calf serum. For proliferation assays, cells were plated onto 24-well plates in DMEM at a density of 4000 cells/well. The cells allowed to attach overnight and then treated with E2 (10^−6 to 10^−10 M) without COMT-inhibitor or with 10 μM of COMT-inhibitor, 2-OHE2 (10^−5 to 10^−10 M) without COMT-I, or with 10 μM COMT-I, 2-OHE2, or 2-MeOHE2 (10^−5 to 10^−10 M). Control cells were treated with medium containing 10 μl of absolute ethanol. After 48 hours, the cells were harvested for the proliferation assay. For western blot analysis, the cells were seeded in 100 mm plates at final density of 2×10^6 cells/plate. […] Cells were harvested 48 hours after treatment and cell lysates were used for western blotting. A fluorometric assay, implementing Hoechst 33258 (bisbenzimide), was used for DNA quantitation. ELT3 cells (5×10^3 cells/well) were plated (described above). The cells were allowed to attach overnight at 37° C., and then the media were replaced with media containing the appropriate treatment. Control cells were treated with a 1:1000 dilution of absolute ethanol. The cells were incubated with the treatments for 48 hours, followed by cell lysis and DNA content determination using Hoechst dye solution (10 μl/100 ml distilled H2O). Fluorescence was measured (DyNA Quant 200; Hoefer Pharmacia Biotech) after excitation at 365 nm and fluorescence at 458 nm. Calf thymus DNA was used as a standard to determine DNA concentration.
# [2] = system: estrogen response elements-luciferase reporter (AdERE-Luc) in ELT3 cells; assay: AdERE-Luc reporter luciferase activity in ELT3 cells; details: for luciferase activity reduction compared to E2 (10^−8 M) alone: plus E2 10^−8 M
# Source text: Transfection of ELT3 cells with recombinant ERE-Luciferase adenovirus vector was achieved by maintaining ELT 3 cells as described above. For infection with estrogen response elements-luciferase reporter adenoviral vector (Ad ERE-Luc), the cells were allowed to grow to 60-70% confluence and then infected with Ad ERE-Luc vector at multiplicity of infection (MOI) of 100 plaque-forming units (PFU)/cell for two hours in infection medium containing 2% FCS and 1% penicillin/streptomycin. Then, the infection media were removed and replaced with regular media. The transduction efficiency of the adenoviral vectors in ELT3 cells was tested using Ad LacZ vector. β-Galactosidase expression was detected in 95-100% of ELT3 cells at 48 h after infection with Ad LacZ at a 100 PFU. Therefore, subsequent experiments were performed using similar amounts (100 PFU/cell) of recombinant Ad ERE-Luc vector.
# ELT3 cells transfected with AdERE-Luc were treated with E2 and with or without COMT-I or with different concentrations of 2-OHE2 (10^−10 to 10^−6 M) with or with out COMT-I (10 μM). After 48 h incubation with chemicals, cells were harvested with 100 μl of cell lysis buffer (Promega). Luciferase activity was determined using Luciferase Assay Kit (Promega) according to the manufacturer's instructions.
# [3] = system: VEGF; assay: Western blot of VEGF protein expression in ELT3 cells; details: 48 h, maximal inhibition at 10 μM
# Procedure: (§1) The Eker rat tumor-derived ELT-3 uterine leiomyoma cells were grown in DMEM medium supplemented with 10% fetal bovine serum and 1% antibiotics (containing 100 U/ml penicillin and 100 μg/ml streptomycin. The cells were maintained in the 100 mm tissue culture dishes at 37° C. air with 5% CO2 and 95% humidity. When experiments required the addition of exogenous compounds, cells were weaned by culturing for 48 h in phenol red-free medium containing 10% Charcoal-stripped fetal calf serum. For proliferation assays, cells were plated onto 24-well plates in DMEM at a density of 4000 cells/well. The cells allowed to attach overnight and then treated with E2 (10^−6 to 10^−10 M) without COMT-inhibitor or with 10 μM of COMT-inhibitor, 2-OHE2 (10^−5 to 10^−10 M) without COMT-I, or with 10 μM COMT-I, 2-OHE2, or 2-MeOHE2 (10^−5 to 10^−10 M). Control cells were treated with medium containing 10 μl of absolute ethanol. […]
# (§2) Immunoreactive proteins corresponding to VEGF, Cyclin D, Bcl-2, Bax, and β-actin were identified from total protein by western immunoblotting using specific monoclonal antibodies. […] After a 10-min spin at 10,000×g, the supernatant containing the total cell lysates were quantified using BCA Protein Assay Reagent (Pierce, Rockford, Ill.). […] The expression level of target proteins was quantitated densitometrically and normalized using β-actin expression.
# [4] = system: cyclin D1; assay: Western blot of cyclin D1 protein expression in ELT3 cells; details: 48 h, maximal inhibition at 10 μM
# Procedure: as §1, §2
# [5] = system: Bcl2; assay: Western blot of Bcl2 protein expression in ELT3 cells; details: 48 h, maximal inhibition at 10 μM
# Procedure: as §1, §2
# [6] = system: Bax; assay: Western blot of Bax protein expression in ELT3 cells; details: 48 h
# Procedure: as §1, §2
# [7] = COMT inhibitor 10^−5 M co-treatment, P<0.05
smiles,measurement,setting,value
"C[C@]12CC[C@@H]3c4cc(O)c(O)cc4CC[C@H]3[C@@H]1CC[C@@H]2O [2-OHE2, 2-Hydroxyestradiol]",reduction in cell proliferation compared to the untreated control,[1]; 2-OHE2 10^−6 M,21%
same,reduction in cell proliferation compared to the untreated control,[1]; 2-OHE2 10^−7 M,16%
same,cell proliferation increase,[1]; 2-OHE2 10^−8 M in the presence of E2 (10^−8 M),33%
same,cell proliferation increase from the control,[1]; 2-OHE2 10^−8 M,61%
same,cell proliferation increase,[1]; 2-OHE2 10^−9 M in the presence of E2 (10^−8 M),24%
same,cell proliferation increase from the control,[1]; 2-OHE2 10^−9 M,54%
same,cell proliferation increase,[1]; 2-OHE2 10^−10 M in the presence of E2 (10^−8 M),10%
same,cell proliferation increase from the control,[1]; 2-OHE2 10^−10 M,19%
same,luciferase activity reduction compared to E2 (10^−8 M) alone,[2]; 2-OHE2 10^−6 M,39%
same,luciferase activity reduction compared to E2 (10^−8 M) alone,[2]; 2-OHE2 10^−7 M,32%
same,luciferase activity reduction compared to E2 (10^−8 M) alone,[2]; 2-OHE2 10^−8 M,32%
same,luciferase activity reduction compared to E2 (10^−8 M) alone,[2]; 2-OHE2 10^−10 to 10^−9 M,30%
same,AdERE-Luc activity,"[2]; 2-OHE2, E2-free environment, concentration dependent",up-regulated
"O=C(c1cc(O)c(O)c([N+](=O)[O-])c1)c1ccccc1F [COMT inhibitor, R0 41-0960]",effect on the antiproliferative effect of high dose 2-OHE2,[1]; [7],augmented
same,effect on the proliferative effect of low dose 2-OHE2,[1]; [7],consistently antagonized
same,effect on E2-induced cell proliferation,"[1]; COMT inhibitor 10^−5 M with E2 10^−10 to 10^−6 M, P<0.05 at all estrogen concentrations",consistently inhibited
same,effect on E2-induced AdERE-luciferase at higher E2 concentrations,"[2]; COMT inhibitor 10^−5 M, E2 10^-6 and 10^-5 M, P=0.056 and P=0.17",less pronounced
same,AdERE-luciferase compared to treatment with E2 alone,"[2]; COMT inhibitor 10^−5 M, E2 10^-10 to 10^-7 M, P<0.05",significant down regulation
"COc1cc2c(cc1O)CC[C@@H]1[C@@H]2CC[C@]2(C)[C@@H](O)CC[C@@H]12 [2-MeOHE2, 2-Methoxyestradiol]",cell proliferation reduction compared to the corresponding control,[1]; 2-MeOHE2 5×10^−7 M,30%
same,cell proliferation increase from the untreated control,[1]; 2-MeOHE2 5×10^−8 M,31%
same,cell proliferation reduction compared to the corresponding control,[1]; 2-MeOHE2 10^−5 M,65%
same,cell proliferation reduction compared to the corresponding control,[1]; 2-MeOHE2 10^−6 M,51%
same,cell proliferation reduction compared to the corresponding control,[1]; 2-MeOHE2 10^−7 M,16%
same,cell proliferation increase from the untreated control,[1]; 2-MeOHE2 10^−8 M,24%
same,cell proliferation increase from the untreated control,[1]; 2-MeOHE2 10^−9 M,20%
same,cell proliferation increase from the untreated control,[1]; 2-MeOHE2 10^−10 M,15%
same,VEGF protein expression,[3],concentration-dependent inhibition
same,cyclin D1 protein expression,[4],concentration-dependent inhibition
same,Bcl2 protein expression,[5],concentration-dependent inhibition
same,Bax protein expression,[6],gradient increase
"C[C@]12CC[C@@H]3c4ccc(O)cc4CC[C@H]3[C@@H]1CC[C@@H]2O [E2, β-Estradiol]",concentration of maximum effect on ELT3 proliferation,"[1]; E2 alone, 48 h",10^−8 M
same,maximum up-regulation of AdERE-Luciferase,[2]; E2 10^−8 M,6 fold

# Source: patent US7960133B2, “Methods of diagnosing leiomyoma by measuring catechol-O-methyltransferase” (The Board of Regents of the University of Texas System, priority 2003, dated 2011)
